Test results published in article PMC2139966 (The Journal of Cell Biology, 1997).

Biological target: band 3 (anion exchanger AE1)
Experiment: […]SO4/SO4 exchange in band […] proteoliposomes
Format: biochemical, Oryctolagus cuniculus

Ki: 2000 ± 1000 nM
Compound: O=[N+]([O-])c1ccc(/C=C/c2ccc([N+](=O)[O-])cc2S(=O)(=O)O)c(S(=O)(=O)O)c1 [DNDS, 4,4′-dinitorsostilbene-2,2′-disulfonic acid]
